# Experiments:
# [1] = tested on: Pseudomonas aeruginosa; test: Activity of Pseudomonas aeruginosa 166301 beta-lactamase VIM-16
# [2] = tested on: Pseudomonas aeruginosa; test: Activity of Pseudomonas aeruginosa 9551 beta-lactamase VIM-15 relative to cephaloridine
# [3] = tested on: Pseudomonas aeruginosa; test: Ratio of Kcat to Km for Pseudomonas aeruginosa 166301 beta-lactamase VIM-16 relative to cephaloridine
# [4] = tested on: Escherichia coli; test: Antimicrobial activity against Escherichia coli DH5alpha by agar dilution method; format: functional; settings: DH5[alpha]
# [5] = tested on: Escherichia coli; test: Antimicrobial activity against Escherichia coli DH5alpha harboring beta-lactamase VIM-2 by agar dilution method; format: functional; settings: DH5[alpha]
# [6] = tested on: Escherichia coli; test: Antimicrobial activity against Escherichia coli DH5alpha harboring beta-lactamase VIM-16 by agar dilution method; format: functional; settings: DH5[alpha]
# [7] = tested on: Pseudomonas aeruginosa; test: Activity of Pseudomonas aeruginosa 9551 beta-lactamase VIM-15
# [8] = tested on: Pseudomonas aeruginosa; test: Antimicrobial activity against Pseudomonas aeruginosa 166301 expressing beta-lactamase VIM-16 obtained from urine of patient by agar dilution method; format: functional
# [9] = tested on: Pseudomonas aeruginosa; test: Ratio of Kcat to Km for Pseudomonas aeruginosa 9551 beta-lactamase VIM-15
# [10] = tested on: Escherichia coli; test: Antimicrobial activity against Escherichia coli DH5alpha harboring beta-lactamase VIM-15 by agar dilution method; format: functional; settings: DH5[alpha]
# [11] = tested on: Pseudomonas aeruginosa; test: Activity of Pseudomonas aeruginosa 166301 beta-lactamase VIM-16 relative to cephaloridine
# [12] = tested on: Pseudomonas aeruginosa; test: Ratio of Kcat to Km for Pseudomonas aeruginosa 166301 beta-lactamase VIM-16
# [13] = tested on: Pseudomonas aeruginosa; test: microbe, parasite or virus in culture; settings: Pseudomonas aeruginosa, 9551, Urine
# [14] = tested on: Pseudomonas aeruginosa; test: Ratio of Kcat to Km for Pseudomonas aeruginosa 9551 beta-lactamase VIM-15 relative to cephaloridine
# [15] = target: Beta-lactamase VIM-2 (Pseudomonas aeruginosa) (UniProt Q9K2N0); test: Activity of Pseudomonas aeruginosa COL-1 beta-lactamase VIM-2 relative to cephaloridine
# [16] = target: Beta-lactamase VIM-2 (Pseudomonas aeruginosa) (UniProt Q9K2N0); test: Ratio of Kcat to Km for Pseudomonas aeruginosa COL-1 beta-lactamase VIM-2 relative to cephaloridine
# [17] = tested on: Escherichia coli; test: Antimicrobial activity against Escherichia coli DH5alpha by agar dilution method in presence of beta-lactamase inhibitor Tazobactam; format: functional; settings: DH5[alpha]
# [18] = tested on: Escherichia coli; test: Antimicrobial activity against Escherichia coli DH5alpha harboring beta-lactamase VIM-2 by agar dilution method in presence of beta-lactamase inhibitor Tazobactam; format: functional; settings: DH5[alpha]
# [19] = tested on: Escherichia coli; test: Antimicrobial activity against Escherichia coli DH5alpha harboring beta-lactamase VIM-16 by agar dilution method in presence of beta-lactamase inhibitor Tazobactam; format: functional; settings: DH5[alpha]
# [20] = tested on: Pseudomonas aeruginosa; test: Antimicrobial activity against Pseudomonas aeruginosa 166301 expressing beta-lactamase VIM-16 obtained from urine of patient by agar dilution method in presence of beta-lactamase inhibitor Tazobactam; format: functional; settings: Pseudomonas aeruginosa, 166301, Urine
# [21] = tested on: Pseudomonas aeruginosa; test: Antimicrobial activity against Pseudomonas aeruginosa 9551 expressing beta-lactamase VIM-15 obtained from urine of patient by agar dilution method in presence of beta-lactamase inhibitor Tazobactam; format: functional; settings: Pseudomonas aeruginosa, 9551, Urine
# [22] = tested on: Escherichia coli; test: Antimicrobial activity against Escherichia coli DH5alpha harboring beta-lactamase VIM-15 by agar dilution method in presence of beta-lactamase inhibitor Tazobactam; format: functional; settings: DH5[alpha]
# [23] = Pseudomonas aeruginosa, 166301, Urine
Compound,Km [1] [µM],kcat [1] [s⁻¹],Activity [2] [%],Activity [3] [%],MIC [4] [µg/mL],MIC [5] [µg/mL],MIC [6] [µg/mL],Km [7] [µM],kcat [7] [s⁻¹],"MIC [8, 23] [µg/mL]",kcat/Km [9] [M⁻¹ s⁻¹],MIC [10] [µg/mL],Activity [11] [%],kcat/Km [12] [M⁻¹ s⁻¹],MIC [13] [µg/mL],Activity [14] [%],other results
CO/N=C(\C(=O)N[C@@H]1C(=O)N2C(C(=O)[O-])=C(C[N+]3(C)CCCC3)CS[C@H]12)c1csc(N)n1,210,0.31,5,2.3,0.016,0.03,0.03,130,9.5,32,76000,0.03,0.35,1500,32,–,–
GENTAMICIN,–,–,–,–,0.13,0.13,0.13,–,–,–,–,0.13,–,–,–,–,MIC [8]: > 128 µg/mL
NC[C@H]1O[C@H](O[C@H]2[C@H](O)[C@@H](O[C@H]3O[C@H](CO)[C@@H](O)[C@H](N)[C@H]3O)[C@H](N)C[C@@H]2N)[C@H](N)C[C@@H]1O [TOBRAMYCIN],–,–,–,–,0.25,0.25,0.25,–,–,> 128,–,0.25,–,–,8,–,–
C[C@H]1[C@H](NC(=O)/C(=N\OC(C)(C)C(=O)O)c2csc(N)n2)C(=O)N1S(=O)(=O)O [AZTREONAM],–,< 0.11,< 0.016,–,0.016,0.016,0.016,–,< 0.031,32,–,0.016,< 0.12,–,16,–,–
CO/N=C(\C(=O)N[C@@H]1C(=O)N2C(C(=O)O)=C(COC(C)=O)CS[C@H]12)c1csc(N)n1 [CEFOTAXIME],240,81,47,530,0.03,1,2,13,90,> 256,6.9e+06,4,91,340000,> 256,300,–
CC1(C)S[C@@H]2[C@H](NC(=O)[C@H](N)c3ccc(O)cc3)C(=O)N2[C@H]1C(=O)O [AMOXICILLIN],–,–,–,–,4,256,256,–,–,> 512,–,256,–,–,512,–,–
CC(C)(O/N=C(\C(=O)N[C@@H]1C(=O)N2C(C(=O)[O-])=C(C[n+]3ccccc3)CS[C@H]12)c1csc(N)n1)C(=O)O [CEFTAZIDIME],150,0.22,0.53,2.2,0.13,1,0.5,37,1,64,27000,0.5,0.25,1400,64,1.2,–
C[C@@H](O)[C@H]1C(=O)N2C(C(=O)O)=C(S[C@@H]3CN[C@H](C(=O)N(C)C)C3)[C@H](C)[C@H]12 [MEROPENEM],–,–,–,110,0.016,0.03,0.03,–,–,> 128,–,0.03,–,–,128,–,Activity [15]: 1.8%; Activity [16]: 62%
C[C@@H](O)[C@H]1C(=O)N2C(C(=O)O)=C(SCCNC=N)C[C@H]12 [IMIPENEM ANHYDROUS],89,45,32,800,–,–,–,7.3,61,> 128,8.4e+06,0.5,51,510000,> 128,370,Activity [15]: 17%; Activity [16]: 380%
O=C(Cc1cccs1)N[C@@H]1C(=O)N2C(C(=O)[O-])=C(C[n+]3ccccc3)CS[C@H]12,1400,89,100,100,–,–,–,83,190,–,2.3e+06,–,100,64000,–,100,Activity [15]: 100%; Activity [16]: 100%
CC1(C)S[C@@H]2[C@H](NC(=O)Cc3ccccc3)C(=O)N2[C@H]1C(=O)O,–,–,–,800,–,–,–,–,–,–,–,–,–,–,–,–,–
CCN1CCN(C(=O)N[C@@H](C(=O)N[C@@H]2C(=O)N3[C@@H]2SC(C)(C)[C@@H]3C(=O)O)c2ccccc2)C(=O)C1=O [PIPERACILLIN],–,–,–,–,–,–,–,–,–,–,–,–,–,–,–,–,MIC [17]: 1 µg/mL; MIC [18]: 4 µg/mL; MIC [19]: 8 µg/mL; MIC [20]: 128 µg/mL; MIC [21]: 128 µg/mL; MIC [22]: 8 µg/mL
